Source: patent US8846330B2, “Methods and kits for the diagnosis of RyR1-related diseases” (The Henry M. Jackson Foundation for the Advancement of …, priority 2008, dated 2014)
“Also recorded” adds a separate entry of the source.

Experiments:
[1] = system: skeletal muscle strips (Vastus lateralis); experiment: caffeine halothane contracture test (CHCT), swine muscle strips
[2] = system: lymphocyte cells; experiment: 4CmC-induced adenosine in swine lymphocyte cells, nucleosides assay (Example 4); assay type: cell-based; details: for effect of azumolene on 4CmC-induced adenosine: azumolene up to 1 mM (0-1000 μM)
Description: Isolation of lymphocytes from whole blood: Lymphocyte cells were isolated from whole blood by Ficoll-Hypaque density gradient centrifugation technique (see Boyum A., Scand. J. Clip. Lab. 97:77-89 (1968)). Isolated lymphocyte cells were dispensed into 3-volume normal Hanks' balanced salt solution (HBSS) and centrifuged (10 minutes at 1000 RPM). The pellet was re-suspended in HBSS to lyse contaminating erythrocytes and spun. The later step was repeated one more time. To maintain simplicity of the protocol for possible MH diagnostic purposes no further purification was attempted. Lymphocyte cells were then cultured in RPMI-1640 media supplemented with 10% fetal bovine serum, […] penicillin and 2 mM glutamine. Cell cultures were incubated at 37° C. in a humidified chamber with 5% CO2. All experiments were completed within 4 days after isolation of lymphocyte cells from whole blood samples.
Nucleosides Assay Protocol: Briefly, lymphocyte cells (1−2×10^6 cells/test) were suspended in HBSS with or without Ca^2+/Mg^2+ (as indicated for each experiment) plus 0.1% bovine serum albumin (BSA). Experiments were carried out in the presence of the adenosine deaminase inhibitor erythro-9-(2-hydroxy-3-nonyl) adenine-HCl ([…]) to prevent deamination of adenosine to inosine (Lorbar et al., J Mol Cell Cardiol 31: 401-12 (1999)) and incubated at 37° C. for 10 minutes followed by treatment with different 4CmC concentrations (0.05-10 mM). Further incubation at 37° C. for an additional 45 minutes was also carried out. Final volumes of the test tubes were adjusted to 0.2 ml using HBSS buffer. Termination of the cell activity and purification of samples was accomplished by addition of 0.1 ml 12% perchloric acid followed by centrifugation at 5000 RPM for 10 minutes. Aliquots of the supernatant (50 μl) were assayed for adenosine and inosine content using HPLC.
HPLC Conditions: The HPLC system consisted of a Waters Symmetry C18 column (4.6×250 mm) and mobile phase of 94% KH2PO4 (50 mM, pH 4.6) containing 1-heptanesulfonic acid (0.5 mM) and 6% acetonitrile. Under these conditions, retention times for inosine and adenosine were 4 and 7.3 min, respectively. Peak width of inosine and adenosine were 18 and 36 seconds, respectively. Eluting compounds were detected by their absorbance at 254 nm using a Waters photodiode array detector (model 996). Sample adenosine and inosine concentrations were obtained using a calibrated standard curve of concentrations vs. peak area.
Statistics: Sample nucleosides concentrations were normalized to represent per 1 million cells and presented as means±SEM. The t-test was applied to test for differences between agonist-induced nucleosides in lymphocyte cells from MHS and normal swine. A P<0.05 considered to indicate statistical significance.

[3] = system: lymphocyte cells; experiment: 4CmC-induced adenosine in human lymphocyte / immortalized B cells (Example 3); assay type: cell-based
[4] = system: lymphocyte cells; experiment: 4CmC-induced adenosine/inosine in human peripheral blood lymphocytes, HPLC (Example 1); assay type: cell-based; details: 4CmC-stimulated lymphocytes
Description: FIG. 2 is a dose-response curve for 4-chloro-m-cresol (4CmC)-induced intracellular adenosine plus inosine in lymphocyte cells from malignant hyperthermia susceptible (MHS, n=11), not-susceptible (MHN, n=9), and normal (n=7) subjects. Lymphocyte cells were treated with 4CmC in the presence of an inhibitor of adenosine deaminase (EHNA, 0.1 mM). After purification, aliquot was analyzed for adenosine and inosine content using HPLC. Adenosine plus inosine values in the absence of 4CmC are plotted against X=0.02 mM to allow logarithmic display of the entire dose response curve. Adenosine plus inosine levels were normalized to reflect per 1 million cells. 4CmC responses at 1, 2, and 5 mM on MHS groups are about 4, 4, and 6 fold higher than the corresponding values in MI-1N or normal groups with values of 6×10^−5, 8×10^−5, and […], respectively. There were no overlaps between the MHS group and the MHN or normal groups.
Lymphocyte cells from MHS (n=11), MHN (n=9) and normal (n=7) subjects were suspended in normal HBSS plus 0.1% BSA and treated with adenosine deaminase inhibitor (EHNA, 0.1 mM). After 10 minutes of incubation at 37° C., cells were treated with HBSS, with and without the RyR1 agonist 4CmC (5 mM) and incubated at 37° C. for an additional 45 minutes. After termination and purification of the samples, aliquots (50 μl) were assayed in duplicate for adenosine and inosine content using HPLC. Concentrations are normalized to per 1 million cells. The sum of the adenosine plus inosine level is about 6-fold higher than corresponding values in normal and MHN cells.
Pilot studies were conducted using blood samples from human subjects in the following groups: Group 1: MHS subjects with positive CHCT and/or having a known MH associated mutation (n=11); Group 2: non-MH susceptible with negative CHCT results (MHN) (n=9), and Group 3: normal subjects who had not undergone CHCT and had no family history of MH (n=7).
Briefly, venous blood samples (20 ml) were drawn from patients using heparinized blood collection tubes. Peripheral blood lymphocyte cells were isolated from whole blood by the Ficoll-Hypaque centrifugation technique. Briefly, diluted anti-coagulated blood is layered over Ficoll-Hypaque and centrifuged. Mononuclear cells consisting of lymphocytes and some monocytes are recovered at the interface. The cells were washed with the Flanks' balanced salt solution (HBSS) buffer, re-suspended in the HBSS buffer, and treated with different concentration of 4CmC at 37° C. in the presence and/or absence of inhibitor of adenosine deaminase erythro-9-(2-hydroxy-3-nonyl)adenine (EHNA) for about 30 minutes. The cells were then purified by adding an equal volume of 6% HClO4 and centrifuged at 6000 rpm for 10 minutes. Aliquots of the supernatant were analyzed for adenosine and inosine content with HPLC using a Waters Separation Module (Model 2695) equipped with Waters Photodiode Array Detector and Empower software.

[5] = system: biopsied skeletal muscle strips; experiment: caffeine halothane contracture test (CHCT), human muscle strips; details: 2 mM caffeine, average of 3 muscle strips
From the text: Currently definitive MH diagnosis is made by means of the invasive, surgery-requiring caffeine halothane contracture test (CHCT) in North America, by a similar in vitro contracture test (IVCT) in Europe and by technically very difficult calcium induced calcium release (CICR) in Japan; all these tests use biopsied leg muscle (Vasitis lateralis). Other countries are using tests essentially similar to one or these tests. CHCT has a sensitivity of 97% (accurately detects MH susceptible individuals) with a specificity of only 78% (yields 22% false positives). However, because of the invasive surgery, the costs of the test, and the limited viability of the biopsied skeletal muscle samples, the CHCT must be completed within 5 hours post biopsy. Therefore, the muscle biopsies must be conducted at a certified MH diagnostic center or in close-by hospitals (currently there are only 6 MH diagnostic centers in North America). Because of these procedural and logistic complexities, it is estimated that only about 10% of all individuals eligible to undergo the CHCT test are actually tested (estimated from referrals to the North American Malignant Hyperthermia Hotline).

[6] = muscle strips from normal swine

With `FC(F)(F)C(Cl)Br` (centres unmarked) [Halothane, halothane] the “Halothane (3%)-induced contractures, mean” value ([1]; muscle strips from MHS swine) was 19.2±3.1 mN, the “Halothane (3%)-induced contractures, range” value ([1]; muscle strips from MHS swine) was 11.2-33.1 mN and the “Halothane (3%)-induced contractures, mean” value [1, 6] was 1.2±1.0 mN. The “Halothane (3%)-induced contractures, range” value [1, 6] was 0-1.8 mN.
`O=C1CN(/N=C/c2ncc(-c3ccc(Br)cc3)o2)C(=O)N1` [azumolene] was tested, and the “effect of azumolene on 4CmC-induced adenosine” value ([2]; 1 mM 4CmC, normal swine (n=5), Ca2+/Mg2+-free HBSS) was “only marginally inhibited”, the “effect of azumolene on 4CmC-induced adenosine” value ([2]; 1 mM 4CmC, normal swine (n=5), Ca2+/Mg2+-free HBSS, listed as Azumolene) was “did not significantly decrease; also recorded: did not significantly affect” and the Ki ([2]; non-linear curve fitting, 1 mM 4CmC, read-out: apparent Ki value of azumolene for inhibition of 4CmC-induced ADO formation) was about 5 mM.
In the case of `C1CCC[C@H]2CCCN3CC[C@@H](CCCCCC[C@@H]4CCCN5CC[C@@H](CC1)O[C@@H]45)O[C@@H]23` [XeC, Xestospongin C], the “effect of XeC on 4CmC-induced ADO” value ([2]; 1 μM XeC, 2 mM 4CmC, normal swine) is reported as “did also not affect”, the “decrease of 4CmC-induced ADO by XeC” value ([2]; 10 μM XeC, 2 mM 4CmC, normal swine (n=5)) is reported as 27% and the “effect of XeC alone on basal ADO levels” value ([2]; XeC 1 and 10 μM, Ca2+/Mg2+-free HBSS) is reported as “did not affect”. The “effect of XeC on 4CmC (2 mM)-induced adenosine” value ([2]; XeC as printed in figure legend, normal swine) was “Significantly (P=0.002) Reduced”, the “effect of XeC alone on basal ADO levels” value ([3]; XeC 1 and 10 μM) was “did not produce any change” and the “effect of XeC on response of B cells to 4CmC” value ([3]; immortalized B cells (MHS, n=3), Ca2+ free HBSS, 2 mM 4CmC) was “did not affect”.
With `CCCCCC[C@@H]([C@@H](C)O)n1cnc2c(N)ncnc21` (racemic) [EHNA, erythro-9(2-hydroxy-3-nonyl)adenine] the “EHNA concentration at which inosine formation decreased and ADO increased to plateau level” value ([2]; swine lymphocytes (n=3)) was at least 20 µM, the “EHNA concentration at which inosine formation decreased, matched by equimolar increase in adenosine” value [4] was at least 10 µM and the “inhibition of ADO deaminase by EHNA” value ([3]; immortalized B cells from a CHCT positive (MHS) subject, 4CmC 2 mM, FIG. 4) was “effectively inhibited”.
With `N#CC(C#N)=NNc1ccc(OC(F)(F)F)cc1` [FCCP, Carbonyl cyanide 4-(trifluoromethoxy) phenylhydrazone] the “ADO level reached with FCCP alone” value ([2]; FCCP 2 and 20 μM, FIG. 14A) was 0.1 to 0.12 µM, the “effect of FCCP on basal adenosine levels” value ([2]; FCCP 2 and 20 μM, FIG. 14A) was “significantly increased” and the “increase of basal ADO levels by FCCP alone” value ([2]; FCCP 2 and 20 μM, normal swine, Ca2+/Mg2+ free HBSS) was 4.5 fold. For the same compound, the “effect of FCCP on 4CmC-induced ADO formation” value ([2]; both tested FCCP concentrations, 1 mM 4CmC during FCCP treatment (FIG. 14B)) was “prevented the maximum increase in ADO formation” and the “effectiveness of FCCP in inducing ADO formation relative to 4CmC” value ([2]; normal swine lymphocytes) was 25%.
`Cn1c(=O)c2c(ncn2C)n(C)c1=O` [Caffeine, caffeine] was tested, and the “Caffeine (2 mM)-induced contractures, range” value ([1]; muscle strips from MHS swine) was 4.7-17.1 mN, the “Caffeine (2 mM)-induced contractures, mean” value [1, 6] was 0.4 mN and the “Caffeine (2 mM)-induced contractures, range” value [1, 6] was 0-1 mN. The “CHCT Results Contractures (g) 2 mM Caf” value ([5]; Table 1, CHCT-negative subjects) was 0 g and the “CHCT Results Contractures (g) 2 mM Caf” value ([5]; Table 2, MHN subjects) was 0 g.
